Literature values in US6306864A, “Atropisomers of 3-aryl-4(3H)-quinazolinones and their use as AMPA-receptor antagonists” (Pfizer Inc., priority 2000, dated 2001).

Tests used:
[1] = test system: rat global ischemia models
[2] = test system: global and focal ischemic damage; settings: focal and global ischemia models

SMILES | neuroprotection in rat global ischemia models [1] | prevention of global and focal ischemic damage [2]
CC1=NN=C(c2ccc(N)cc2)c2cc3c(cc2C1)OCO3 [GKYI 52466] | effective neuroprotective agent | –
NS(=O)(=O)c1cccc2c1c([N+](=O)[O-])cc1[nH]c(=O)c(=O)[nH]c12 [NBQX, 2,3-dihydroxy-6-nitro-7-sulfamoylbenzo[f-]quinoxaline] | – | effective in preventing global and focal ischemic damage
